Measured values as given in patent US9629830B2, “EphA4 inhibitors as neuroprotective agents” (The Hong Kong University of Science and Technology, priority 2013, dated 2017).
Entries after “also recorded” stand apart in the source; their conditions may differ.

Columns and labels:
[1] = molecular target: T1, extracellular domain of EphB2 (Homo sapiens, UniProt P29323); assay: In vitro pull-down of recombinant EphB2-Fc with biotinylated Rhy on streptavidin beads; type: binding; details: western blot
T1 construct: purchased R&D Systems
T1 sequence (P29323 19-543 limits assumed): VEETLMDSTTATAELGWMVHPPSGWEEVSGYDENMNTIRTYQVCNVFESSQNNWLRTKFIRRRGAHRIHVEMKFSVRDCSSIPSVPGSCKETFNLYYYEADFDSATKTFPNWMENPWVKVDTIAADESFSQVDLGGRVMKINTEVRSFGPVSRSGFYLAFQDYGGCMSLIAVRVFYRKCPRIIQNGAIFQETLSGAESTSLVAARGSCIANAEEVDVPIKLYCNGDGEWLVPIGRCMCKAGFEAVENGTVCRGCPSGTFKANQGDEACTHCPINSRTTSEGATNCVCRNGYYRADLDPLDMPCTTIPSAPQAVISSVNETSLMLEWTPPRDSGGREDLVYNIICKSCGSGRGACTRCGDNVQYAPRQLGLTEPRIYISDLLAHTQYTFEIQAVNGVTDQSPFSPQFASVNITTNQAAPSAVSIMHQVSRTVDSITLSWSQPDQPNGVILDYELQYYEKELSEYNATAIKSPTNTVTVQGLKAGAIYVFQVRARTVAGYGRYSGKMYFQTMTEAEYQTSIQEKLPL
Method: For the pull-down analysis, Bio-Rhy was bound to streptavidin magnetic beads for 1 h, the beads was then incubated with recombinant EphA4-Fc or EphB2-Fc in the presence of 0.5% BSA for 1 h. After incubation, the beads were washed 4 times with DPBS and the presence of Eph in the complex was determined by western blot analysis.

EphA4 = molecular target: T2, EphA4 (Rattus norvegicus, UniProt D3ZZK3); assay: ephrin-A1-induced EphA4 tyrosine phosphorylation in cortical neurons (immunoprecipitation, western blot); type: cell-based; details: cortical neurons pretreated with compound, then ephrin-A1; western blot for P-Tyr
T2 construct: endogenous in cells; host or cells: primary rat cortical neurons (A5), primary rat hippocampal neurons (A7)
Method: Primary cortical and hippocampal neurons were prepared from embryonic day 18-19 rat embryos as described previously^24. Briefly, cortical neurons (6×10^6 per plate) were plated on 100-mm culture dishes coated with poly-D-lysine (12.5 μg/mL; Sigma). Rat hippocampal neurons were seeded on 18-mm coverslips coated with poly-D-lysine (50 μg/mL) at a density of 0.5×10^5/18-mm coverslip for immunocytochemical analysis, 0.1×10^5/18-mm coverslip for growth cone collapse assay, or 1×10^5 or 1.5×10^5/18-mm coverslip for mEPSC recording. Neurons were fed Neurobasal medium (Invitrogen) supplemented with 2% B27 (Invitrogen). Acute brain slices were prepared from P15-P17 Sprague-Dawley rats. Briefly, the rats were rapidly decapitated, and their brains were immersed in ice-cold artificial cerebrospinal fluid (ACSF). The hippocampus was dissected, and 300-μm-thick slices were prepared using a vibratome (Lieca). The slices were then transferred into an incubating chamber containing circulating ACSF equilibrated with 95% O2+5% CO2 and held at room temperature for at least 2 h for recovery prior to experiments^65.
For the immunoprecipitation assay, lysates were immunoprecipitated with the corresponding antibody for 2 h at 4° C. followed by incubation with protein G Sepharose for 1 h at 4° C.^24. […] EphA4 tyrosine phosphorylation was detected by western blot analysis using 4G10 antibody. […]

[2] = tested on: EphA4-dependent growth cone collapse in hippocampal neurons; assay: EphA4-dependent (ephrin-A1-stimulated) growth cone collapse assay; type: cell-based, rat; details: cultured hippocampal neurons
Method: Ephrin-A1-Fc was pre-clustered with goat anti-human Fc antibody (1:4.5)^24 and incubated at room temperature for 60 min before use. The growth cone collapse assay was performed in hippocampal neurons with ephrin-A1 0.1 μg/mL as described previously^61.
For EphA4 clustering, neurons were stained with anti-EphA4 and anti-Tau-1 antibodies. For the growth cone collapse assay, neurons were stained with Alexa Fluor 555-conjugated phalloidin (Molecular Probes) for filamentous actin and anti-Tau-1 antibody for axons. Collapsed growth cones were scored in a double-blinded manner. The experiments were repeated at least 3 times, and >50 neurons were analyzed for each experiment. Data are presented as mean±SEM.
To screen for small molecule EphA4 inhibitors, the inventors performed a molecular docking analysis using a small molecule library. […] Their ability in inhibiting EphA4 inhibiting the EphA4-dependent growth cone collapse using cultured hippocampal neurons was performed.

APP/PS1 mice = assay: Amyloid plaque deposition and microglial activation in APP/PS1 mice (immunohistochemistry); type: in vivo, mouse
Method: For immunohistochemical analysis, mice were anesthetised, transcardially perfused with saline followed by 4% paraformaldehyde (pH 7.4), and the brains were removed^66. After overnight postfixation and a series of cryoprotection, the brains were coronally sectioned at a thickness of 20 μm using a cryostat (Microm HM 560, Thermo Scientific). The sections were stained with β-amyloid (1:200) and Iba1 (1:500) antibodies overnight at 4° C., followed by incubation with appropriate fluorescence-conjugated secondary antibodies and mounted in Hydromount (National diagnostics). Images were taken with a Leica DMRA microscope. For 3,3-diaminobenzidine (DAB) staining, the sections were rehydrated and subjected to antigen retrieval. […]
Images from the same experiment were obtained using identical acquisition settings, and images were analyzed with Metamorph software (Meta Image Series 7.5, Universal Imaging Corp.)^24,58. For quantifying the EphA4 and PSD-95 clusters, two dendrite segments from each neuron were analyzed for quantification. […] The basal threshold values for the background of all images in each experiment were measured. […] To measure the density of clusters in dendrites, the images were first thresholded to include the clusters with intensity 2-fold greater than the signal of an adjacent dendrite, and the total number of clusters and dendrite length were measured automatically. […]

NMDA receptor = details: subsequent study; cited from earlier work

T2 sequence (D3ZZK3 20-986): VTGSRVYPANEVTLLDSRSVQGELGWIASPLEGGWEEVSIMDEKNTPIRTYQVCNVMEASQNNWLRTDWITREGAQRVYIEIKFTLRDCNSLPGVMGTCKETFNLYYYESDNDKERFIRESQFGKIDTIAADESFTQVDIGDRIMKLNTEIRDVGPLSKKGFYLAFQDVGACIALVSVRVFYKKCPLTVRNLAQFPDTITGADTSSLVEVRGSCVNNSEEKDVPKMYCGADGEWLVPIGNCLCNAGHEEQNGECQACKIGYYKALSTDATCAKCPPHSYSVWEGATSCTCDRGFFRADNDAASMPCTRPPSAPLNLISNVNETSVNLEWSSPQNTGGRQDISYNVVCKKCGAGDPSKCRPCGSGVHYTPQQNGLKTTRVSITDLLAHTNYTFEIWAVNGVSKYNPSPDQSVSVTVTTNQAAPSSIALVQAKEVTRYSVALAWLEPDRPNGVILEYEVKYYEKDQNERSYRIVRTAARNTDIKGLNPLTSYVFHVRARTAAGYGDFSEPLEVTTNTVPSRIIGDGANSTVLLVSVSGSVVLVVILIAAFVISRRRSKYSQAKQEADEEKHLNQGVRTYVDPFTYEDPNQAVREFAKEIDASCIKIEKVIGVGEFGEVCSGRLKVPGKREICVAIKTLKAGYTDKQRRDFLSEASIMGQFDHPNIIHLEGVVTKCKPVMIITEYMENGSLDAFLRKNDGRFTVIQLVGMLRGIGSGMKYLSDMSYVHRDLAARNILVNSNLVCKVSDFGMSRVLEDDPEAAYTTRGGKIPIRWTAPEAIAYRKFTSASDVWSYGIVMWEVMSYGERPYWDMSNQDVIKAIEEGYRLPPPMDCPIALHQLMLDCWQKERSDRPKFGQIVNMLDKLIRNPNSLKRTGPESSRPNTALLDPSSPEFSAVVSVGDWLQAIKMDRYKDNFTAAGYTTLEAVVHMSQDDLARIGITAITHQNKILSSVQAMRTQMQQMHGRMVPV

CC[C@H]1CN2CC[C@]3(C(=O)Nc4ccccc43)[C@@H]2C[C@@H]1/C(=C\OC)C(=O)OC [Rhy, methyl (7β,16E,20α)-16-(methoxymethylene)-2-oxocorynoxan-17-oate]
binding to the extracellular domain of EphB2 (pull-down, words) [1]: not that of EphB2 | ephrin-A1-induced EphA4 tyrosine phosphorylation (EphA4): reduced the specific phosphorylation; also recorded: inhibited Eph-ephrin-A interaction and EphA4 tyrosine phosphorylation | ephrin-A1-stimulated growth cone collapse [2]: reduced; also recorded: inhibited ephrin-A1-stimulated growth cone collapse | amyloid plaques in cortex and hippocampus (APP/PS1 mice; APP/PS1 mice, 10-week administration of Rhy versus water): number and total area of amyloid plaques decreased significantly | plaque-associated reactive microglia, Iba1 staining (APP/PS1 mice; cortex of APP/PS1 mice administered with Rhy): significant reduction of plaque-associated reactive microglia | binding to NMDA receptor (NMDA receptor): neither binds to NMDA receptor
